Columns and labels:
Format in all cases: in vivo
[1] = tested on: ryegrass, Italian (Italian ryegrass, Lolium multiflorum); test: Test C postemergence, Italian ryegrass; conditions: for Ryegrass, Italian plant response rating: visual injury, 0 to 100 scale (0 no effect, 100 complete control)
Procedure, shortened: (§1)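 Pre: soil sprayed at seeding. Post: seedlings treated at 1–2 leaves (2–10 cm). Vehicle non-phytotoxic solvent mix with surfactant; loam–sand medium; greenhouse; visual injury read at 10 or 12 days, scale 0–100.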

[2] = tested on: wheat (Triticum aestivum); test: Test C preemergence, wheat; conditions: 0 is no effect, 100 is complete control
[3] = tested on: rice (Oryza sativa); test: Test D flooded paddy test, rice; set-up: key: 0 = no effect, 100 = complete control; conditions: 250 g ai/ha, Flood; applied to paddy water at 2-leaf stage; visual rating after 13 days; scale 0 (no effect) to 100 (complete control)
Procedure, shortened: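 Under 3 cm of standing water, kept constant after treatment, 2-leaf plants received compound via the paddy water. Ratings on a 0–100 control scale were assigned visually after 13 greenhouse days; a dash denotes no test result.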

[4] = tested on: kochia (Bassia scoparia); test: Test C postemergence, kochia; conditions: for Kochia plant response rating: visual injury, 0 to 100 scale (0 no effect, 100 complete control); for Plant response rating (0 to 100 scale), Kochia: 0 is no effect, 100 is complete control
Procedure, shortened: as §1

[5] = tested on: foxtail, giant (giant foxtail, Setaria faberi); test: Test C postemergence, giant foxtail; conditions: for Foxtail, Giant plant response rating: visual injury, 0 to 100 scale (0 no effect, 100 complete control); for Plant response rating (0 to 100 scale), Foxtail, Giant: 0 is no effect, 100 is complete control
[6] = tested on: blackgrass (Alopecurus myosuroides); test: Test C postemergence, blackgrass; conditions: visual injury, 0 to 100 scale (0 no effect, 100 complete control)
Procedure, shortened: as §1

[7] = tested on: galium (catchweed bedstraw, Galium aparine); test: Test C postemergence, galium; conditions: for Galium plant response rating: visual injury, 0 to 100 scale (0 no effect, 100 complete control); for Plant response rating (0 to 100 scale), Galium: 0 is no effect, 100 is complete control
[8] = tested on: ryegrass, Italian (Italian ryegrass, Lolium multiflorum); test: Test C preemergence, Italian ryegrass; conditions: 0 is no effect, 100 is complete control
Procedure, shortened: as §1

| SMILES | Ryegrass, Italian plant response rating ([1]; 31 g ai/ha Postemergence) | Ryegrass, Italian plant response rating ([1]; 125 g ai/ha Postemergence) | Plant response rating (0 to 100 scale), Wheat ([2]; 31 g ai/ha Preemergence) | Plant response rating (0 to 100 scale), Wheat ([2]; 125 g ai/ha Preemergence) | Plant response rating, Rice [3] | Kochia plant response rating ([4]; 31 g ai/ha Postemergence) | Plant response rating (0 to 100 scale), Kochia ([4]; 125 g ai/ha Postemergence) | Foxtail, Giant plant response rating ([5]; 31 g ai/ha Postemergence) | Plant response rating (0 to 100 scale), Foxtail, Giant ([5]; 125 g ai/ha Postemergence) | Blackgrass plant response rating ([6]; 31 g ai/ha Postemergence) | Galium plant response rating ([7]; 31 g ai/ha Postemergence) | Plant response rating (0 to 100 scale), Galium ([7]; 125 g ai/ha Postemergence) | Plant response rating (0 to 100 scale), Ryegrass, Italian ([8]; 31 g ai/ha Preemergence) | Plant response rating (0 to 100 scale), Ryegrass, Italian ([8]; 125 g ai/ha Preemergence) | Kochia plant response rating ([4]; 125 g ai/ha Postemergence) | Foxtail, Giant plant response rating ([5]; 125 g ai/ha Postemergence) | Blackgrass plant response rating ([6]; 125 g ai/ha Postemergence) | Galium plant response rating ([7]; 125 g ai/ha Postemergence) | Plant response rating (0 to 100 scale), Ryegrass, Italian ([1]; 125 g ai/ha Postemergence, 0 is no effect, 100 is complete control) |
| --- | --- | --- | --- | --- | --- | --- | --- | --- | --- | --- | --- | --- | --- | --- | --- | --- | --- | --- | --- |
| CC(=O)N(c1cc(N2CCC(OC3CC3)C2=O)c(C)cc1Cl)S(=O)(=O)C(F)(F)F (centres unmarked) [Compound 38] | 30 | 70 | 40 | 90 | 0 | 80 | 90 | 50 | 90 | 40 | 90 | 100 | 80 | 100 | – | – | – | – | – |
| Cc1cc(C)c(N2CCC(OCC3CC3(F)F)C2=O)cc1NS(=O)(=O)C(F)(F)F (centres unmarked) [Compound 41] | 30 | 100 | 90 | 100 | 10 | 70 | – | 20 | – | 40 | 100 | – | 100 | 100 | 80 | 90 | 60 | 100 | – |
| Cc1cc(C)c(N(C(=O)OC(C)C)S(=O)(=O)C(F)(F)F)cc1N1CCC(OC2CC2)C1=O (centres unmarked) [Compound 18] | 0 | – | 0 | 0 | 0 | 20 | 70 | 0 | 0 | 0 | 10 | 70 | 0 | 0 | – | – | – | – | 0 |
| Cc1c(NS(=O)(=O)C(F)(F)F)cc(N2CCC(OC3CCC3)C2=O)c(C)c1F (centres unmarked) [Compound 25] | 20 | 70 | 60 | 100 | 15 | 60 | 90 | 30 | 30 | 0 | 100 | 100 | 90 | 100 | – | – | – | – | – |
| Cc1c(NS(=O)(=O)C(F)(F)F)cc(N2CCC(OC3CC3)C2=O)c(C)c1F (centres unmarked) [Compound 26] | 60 | 100 | 60 | 100 | 65 | 70 | 90 | 40 | 90 | 40 | 100 | 100 | 90 | 100 | – | – | – | – | – |

Source: patent publication US20240158348A1, “HERBICIDAL CYCLIC AMIDES N-SUBSTITUTED WITH A HALOALKYLSULFONYLANILIDE GROUP” (FMC Corporation, priority 2021, published 2024)
